Data from ChEMBL document CHEMBL1926505, “Lanostane and hopane triterpenes from the entomopathogenic fungus Hypocrella sp. BCC 14524” (J Nat Prod, 2011).
Values after ≈ are worked out from the molar mass of the structure shown. Active and inactive are the calls of the source. The rule behind the calls is not given here.

Columns and labels:
Plasmodium falciparum = assay: Antimalarial activity against multidrug-resistant Plasmodium falciparum K1 by microculture radioisotope technique; format: functional, organism-based
[1] = test system: Mycobacterium tuberculosis; assay: Antimycobacterial activity against Mycobacterium tuberculosis H37Ra by green fluorescent protein microplate assay; format: functional
Vero = assay: Cytotoxicity against african green monkey Vero cells by green fluorescent protein microplate assay; format: cell-based; conditions: chlorocebus sabaeus
KB = assay: Cytotoxicity against human KB cells by resazurin microplate assay; format: functional, cell-based
NCI-H187 = assay: Cytotoxicity against human NCI-H187 cells by resazurin microplate assay; format: functional, cell-based
MCF7 = assay: Cytotoxicity against human MCF7 cells by resazurin microplate assay; format: functional, cell-based

SMILES | Activity (Plasmodium falciparum) | Activity [1] | Activity (Vero) | Activity (KB) | Activity (NCI-H187) | Activity (MCF7) | IC50 (Plasmodium falciparum) | MIC [1] | IC50 (Vero) | further results
C=C(C)[C@H]1CC[C@]2(C)[C@H]3CC[C@@H]4[C@@]5(C)CC[C@H](OC(C)=O)C(C)(C)[C@@H]5CC[C@@]4(C)[C@]3(C)[C@@H](O)C[C@@H]12 | inactive | inactive | Non-toxic | inactive | inactive | inactive | – | – | – | –
CC(C)(O)[C@H]1CC[C@]2(C)[C@H]3CC[C@@H]4[C@@]5(C)CC[C@H](O)C(C)(C)[C@@H]5C[C@H](O)[C@@]4(C)[C@]3(C)[C@@H](O)C[C@@H]12 | – | – | – | – | – | – | 12 µM | 50 µg/mL (≈ 105 µM) | 47 µM | IC50 (KB): 28 µM; IC50 (NCI-H187): 12 µM; IC50 (MCF7): > 105 µM
CC(=O)O[C@H]1CC[C@]2(C)[C@H]3CC[C@@H]4[C@@]5(C)CC[C@H](C(C)(C)O)[C@@H]5C[C@H](O)[C@@]4(C)[C@]3(C)[C@@H](O)C[C@H]2C1(C)C | – | – | – | – | – | – | 5.2 µM | 6.25 µg/mL (≈ 12 µM) | 13 µM | IC50 (KB): 56 µM; IC50 (NCI-H187): 11 µM; IC50 (MCF7): > 96 µM
CC(C)(O)[C@H]1CC[C@]2(C)[C@H]3CC[C@@H]4[C@@]5(C)CC[C@H](O)C(C)(C)[C@@H]5CC[C@@]4(C)[C@]3(C)[C@@H](O)C[C@@H]12 | – | – | Non-toxic | – | – | – | – | > 50 µg/mL | – | –
CC(=O)O[C@H]1CC[C@]2(C)[C@H]3CC[C@@H]4[C@@]5(C)CC[C@H](C(C)(C)O)[C@@H]5C[C@H](O)[C@@]4(C)[C@]3(C)CC[C@H]2C1(C)C | – | – | Non-toxic | – | – | – | – | 12.5 µg/mL (≈ 24.9 µM) | – | –
CC(C)(O)[C@H]1CC[C@]2(C)[C@H]3CC[C@@H]4[C@@]5(C)CCCC(C)(C)[C@@H]5CC[C@@]4(C)[C@]3(C)[C@@H](O)C[C@@H]12 | – | – | Non-toxic | – | – | – | – | 12.5 µg/mL (≈ 28.1 µM) | – | –
C=C(C)[C@H]1CC[C@]2(C)[C@H]3CC[C@@H]4[C@@]5(C)CCCC(C)(C)[C@@H]5C[C@H](O)[C@@]4(C)[C@]3(C)[C@@H](O)C[C@@H]12 (relative stereo) | inactive | inactive | Non-toxic | inactive | inactive | inactive | – | – | – | –
C[C@H]1[C@@H](O)O[C@@H]2O[C@@]3(C)CC[C@H]4[C@H](C)CC[C@@H]1[C@@]24OO3 [ARTENIMOL] | – | – | – | – | – | – | 0.0011 µM | – | – | –
Cc1c2ccncc2c(C)c2c1[nH]c1ccccc12 [ELLIPTECINE] | – | – | – | – | – | – | – | – | 9.8 µM | –
CC(C)(O)[C@H]1CC[C@H]([C@H]2CC[C@@]3(C)C4=CC[C@H]5C(C)(C)[C@@H](O)CC[C@]5(C)C4=CC[C@]23C)CO1 [HYPOCRELLOL A] | inactive | inactive | Non-toxic | inactive | inactive | inactive | – | – | – | –
CC(=O)O[C@H]1CC[C@]2(C)C3=CC[C@]4(C)[C@@H]([C@H]5CC[C@H](C(C)(C)O)OC5)CC[C@@]4(C)C3=CC[C@H]2C1(C)C [HYPOCRELLOL B] | inactive | inactive | Non-toxic | inactive | inactive | inactive | – | – | – | –
CC(=O)O[C@H]1CC[C@]2(C)C3=C(CC[C@H]2C1(C)C)[C@]1(C)CC[C@H]([C@H]2CC[C@H](C(C)(C)O)OC2)[C@@]1(C)C[C@H]3O [HYPOCRELLOL D] | – | – | – | – | – | – | 8 µM | 50 µg/mL (≈ 96.8 µM) | 30 µM | IC50 (KB): 15 µM; IC50 (NCI-H187): 18 µM; IC50 (MCF7): 38 µM
NNC(=O)c1ccncc1 [ISONIAZID] | – | – | – | – | – | – | – | 0.0234 µg/mL (≈ 0.171 µM) | – | –
